Test [1] deals with T1, Human DYRK1A (Homo sapiens, UniProt Q13627).
T1 construct: purchased Invitrogen PV3997
Put plainly: DYRK1A Kinase TR-FRET (IMAP-Tb) Assay. In kind it is biochemical. The settings on record: for IC50: TR-FRET, ATP 70 μM, 37° C. for 60 minutes, averages of multiple runs, read-out: Enzyme IC50 DYRK1A; for inhibition at 10 µM: 10 μM test compound, reported where IC50 was not determined, read-out: Enzyme DYRK1A % inhibition at 10 μM test compound concentration. The source says: The kinase TR-FRET (IMAP-Tb) assay uses a fluorescence labeled substrate peptide in the kinase reaction. Upon phosphorylation by the kinase, phosphopeptide is produced, which will be detected by the binding solution provided in IMAP TR-FRET binding kit. After the completion of the kinase reaction, the reaction will be stopped by adding the binding solution containing terbium tracer. This tracer is immobilized on the surface of the IMAP beads, which also contain metal ions on the beads that bind to the phospho-groups of the products. Thus the phosphorylated product of the reaction can enter into close proximity to the tracer, producing resonance energy transfer. Due to the long lifetime of terbium (Tb) fluorescence the detection can be run in time resolved mode, which virtually eliminates fluorescence interference from assay components or compounds.
The TR-FRET signal measurement from this assay, given as an IC50 measurement, is a measure of a test compound's ability to interfere with the phosphorylation of the peptide substrate, that is it inhibits the phosphorylation of the substrate peptide by DYRK1A, and is thus a measure of the test compound's ability to inhibit the activity of DYRK1A.
1. Human DYRK1A: from Invitrogen. Part # PV3997
2. Substrate Peptide: […]
3. IMAP TR-FRET IPP Explorer Kit: from Molecular Devices. Part # R8157 4. Kinase Assay Buffer (KAB): 10 mM HEPES pH 7.0, 50 mM NaCl, 5 mM MgCl2, 1 mM DTT, 1 mM NaVO4, 200 μg/mL BSA (0.02%) 5. Assay Plate: Remp polypropylene clear 384-well microplate. […] Detection Plate: Costa black 384-well microplate. […] Transfer 1.5 μL of 20× compound solution to each well of an assay plate. 2. Add to each well 22.5 μL of KAB Buffer. 3. Add to each well 3 μL of the solution of DYRK1A and ATP. […] Add to each well 3 μL of the substrate peptide. The assay concentration is 1.0 μM 5. Incubate the assay plates at 37° C. for 60 minutes. 6. Add 18 μL of Detection Solution (1:800 diluted Progress bead stock, 1:400 diluted Tb stock, 80% Buffer A, and 20% Buffer B) into each well of detection plates. 7. Transfer 6 μL of assay solution from the assay plate to the detection plate. 8. Shake detection plates for 30 minutes. 9. Read plates in Envision with wavelength set at excitation 340 nm for Tb, emission 490 nm, and […].
Background: In TR-FRET formats the signal depends on donor and acceptor labels being close together.

For test [2], the target named is T2, Human DYRK1B (Homo sapiens, UniProt Q9Y463).
T2 construct: purchased Invitrogen PR8350B (former PV4649)
Put plainly: DYRK1B Kinase TR-FRET (IMAP-Tb) Assay. It counts as biochemical. The settings on record: for IC50: TR-FRET, ATP 70 μM, 37° C. for 60 minutes, averages of multiple runs, read-out: Enzyme IC50 DYRK1B. The source says: The kinase TR-FRET (IMAP-Tb) assay uses a fluorescence labeled substrate peptide in the kinase reaction. Upon phosphorylation by the kinase, phosphopeptide is produced, which will be detected by the binding solution provided in IMAP TR-FRET binding kit. After the completion of the kinase reaction, the reaction will be stopped by adding the binding solution containing terbium tracer. This tracer is immobilized on the surface of the IMAP beads, which also contain metal ions on the beads that bind to the phospho-groups of the products. Thus the phosphorylated product of the reaction can enter into close proximity to the tracer, producing resonance energy transfer. Due to the long lifetime of terbium (Tb) fluorescence the detection can be run in time resolved mode, which virtually eliminates fluorescence interference from assay components or compounds. […] IC50 is the amount of test compound that inhibits 50% of the activity of DYRK1B in this assay. […] 1. Human DYRK1B: from Invitrogen. Part # PR8350B (former PV4649) 2. Substrate Peptide: RRRFRPASPLRGPPK 3. IMAP TR-FRET IPP Explorer Kit: from Molecular Devices. Part # R8157 4. Kinase Assay Buffer (KAB): 10 mM HEPES pH 7.0, 50 mM NaCl, 5 mM MgCl2, 1 mM DTT, 1 mM NaVO4, 200 μg/mL BSA (0.02%) 5. Assay Plate: Remp polypropylene clear 384-well microplate. Cat#23490-102 6. Detection Plate: Costa black 384-well microplate. Cat #3710 Assay Procedure: This assay was performed as follows: 1. Transfer 1.5 μL of 20× compound solution to each well of an assay plate. 2. Add to each well 22.5 μL of KAB Buffer. 3. Add to each well 3 μL of the solution of DYRK1B and ATP. […] Add to each well 3 μL of the substrate peptide. […] Incubate the assay plates at 37° C. for 60 minutes. 6. Add 18 μL of Detection Solution (1:800 diluted Progress bead stock, 1:400 diluted Tb stock, 80% Buffer A, and 20% Buffer B) into each well of detection plates. 7. Transfer 6 μL of assay solution from the assay plate to the detection plate. 8. Shake detection plates for 30 minutes. 9. Read plates in Envision with wavelength set at excitation 340 nm for Tb, emission 490 nm, and […]. 10. Calculation: TR-FRET Signal=(Reading at […])×2000000

A word on the IC50: it is the concentration that gives 50% inhibition.

T2 sequence (Q9Y463 whole entry): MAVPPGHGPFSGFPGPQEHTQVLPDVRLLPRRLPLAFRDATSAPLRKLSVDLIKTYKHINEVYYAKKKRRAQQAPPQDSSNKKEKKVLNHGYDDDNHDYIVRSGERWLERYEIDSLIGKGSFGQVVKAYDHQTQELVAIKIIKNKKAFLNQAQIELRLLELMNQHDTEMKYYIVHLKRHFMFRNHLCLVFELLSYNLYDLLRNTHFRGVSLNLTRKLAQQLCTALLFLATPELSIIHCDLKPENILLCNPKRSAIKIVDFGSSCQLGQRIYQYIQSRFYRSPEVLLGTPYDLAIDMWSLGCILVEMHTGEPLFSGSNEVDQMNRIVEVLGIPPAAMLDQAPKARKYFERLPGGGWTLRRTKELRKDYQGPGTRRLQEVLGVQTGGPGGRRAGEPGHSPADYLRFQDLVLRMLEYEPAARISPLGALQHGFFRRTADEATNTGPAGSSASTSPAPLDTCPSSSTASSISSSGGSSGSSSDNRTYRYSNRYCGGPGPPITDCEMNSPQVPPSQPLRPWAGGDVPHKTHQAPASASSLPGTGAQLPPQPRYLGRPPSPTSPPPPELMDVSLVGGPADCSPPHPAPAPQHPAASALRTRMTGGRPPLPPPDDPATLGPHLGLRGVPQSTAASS

Take `COCCOc1cc2cc(C(=O)Nc3cc(C(=O)N[C@@H](CCN)c4ccccc4)ccc3C)c(=O)[nH]c2cc1OC` (single isomer, unassigned) [Example 59]: the 50% inhibitory concentration (IC50) is 2.38 µM in test [1] and 4.91 µM in test [2].

In the case of `COc1cc2cc(C(=O)Nc3cc(C(=O)NC(CCN)c4ccccc4)ccc3C)c(=O)[nH]c2cc1OC` (stereo in doubt) [Example 48, 6,7-Dimethoxy-2-oxo-1,2-dihydro-quinoline-3-carboxylic acid [5-((S)-3-amino-1-phenyl-propylcarbamoyl)-2-methyl-phenyl]-amide], the IC50 in test [1] turned out to be 1.02 µM. In test [2] (10 μM test compound, reported where IC50 was not determined, read-out: Enzyme DYRK1B % inhibition at 10 μM test compound concentration), the inhibition at 10 µM was 39%.

As for `COc1cc2cc(C(=O)Nc3cc(C(=O)N(C)C)ccc3Cl)c(=O)[nH]c2cc1OC` [Example 20, 6,7-Dimethoxy-2-oxo-1,2-dihydro-quinoline-3-carboxylic acid (2-chloro-5-dimethylcarbamoyl-phenyl)-amide], the results for the IC50 in test [1] and in test [2] were 1.13 µM and 5.09 µM, respectively.

Consider `COc1cc2cc(C(=O)Nc3ccncc3C)c(=O)[nH]c2cc1OC` [Example 21, 6,7-Dimethoxy-2-oxo-1,2-dihydro-quinoline-3-carboxylic acid (3-methyl-pyridin-4-yl)-amide], for which the values for the IC50 in test [1] and in test [2] were > 10 µM and 5.48 µM, respectively.

With `COc1cc2cc(C(=O)Nc3cc(-c4nnn[nH]4)ccc3C)c(=O)[nH]c2cc1OC` [Example 22, 6,7-Dimethoxy-2-oxo-1,2-dihydro-quinoline-3-carboxylic acid [2-methyl-5-(1H-tetrazol-5-yl)-phenyl]-amide], the 50% inhibitory concentration (IC50) in test [1] is > 10 µM; in test [2] it was 0.719 µM.

For the molecule `COCCOc1cc2cc(C(=O)Nc3cc(-c4nnn[nH]4)ccc3C)c(=O)[nH]c2cc1OC` [Example 24, 7-Methoxy-6-(2-methoxy-ethoxy)-2-oxo-1,2-dihydro-quinoline-3-carboxylic acid [2-methyl-5-(1H-tetrazol-5-yl)-phenyl]-amide], the IC50 in test [1] amounted to 1.76 µM; in test [2], 2.67 µM.

As to `COCCOc1cc2cc(C(=O)Nc3cc(C(=O)OC)ccc3C)c(=O)[nH]c2cc1OCCOC` [Example 25, 3-{[6,7-Bis-(2-methoxy-ethoxy)-2-oxo-1,2-dihydro-quinoline-3-carbonyl]-amino}-4-methyl-benzoic acid methyl ester], the IC50 stood at 0.604 µM in test [1] and 0.911 µM in test [2].

For `COCCOc1cc2[nH]c(=O)c(C(=O)Nc3cc(C(=O)OC)ccc3C)cc2cc1OC` [Example 26, 3-{[6-Methoxy-7-(2-methoxy-ethoxy)-2-oxo-1,2-dihydro-quinoline-3-carbonyl]-amino}-4-methyl-benzoic acid methyl ester], the results for the half-inhibitory concentration (IC50) in test [1] and in test [2] were 5.14 µM and 6.42 µM, respectively.

Consider `COCCOc1cc2[nH]c(=O)c(C(=O)Nc3cc(-c4nnn[nH]4)ccc3C)cc2cc1OC` [Example 27, 6-Methoxy-7-(2-methoxy-ethoxy)-2-oxo-1,2-dihydro-quinoline-3-carboxylic acid [2-methyl-5-(1H-tetrazol-5-yl)-phenyl]-amide], for which the inhibition at 10 µM in test [1] stood at 41%. The concentration for half-maximal inhibition (IC50) in test [2] worked out at 6.59 µM.

Consider `COCCOc1cc2cc(C(=O)Nc3cc(-c4nnn[nH]4)ccc3C)c(=O)[nH]c2cc1OCCOC` [Example 28, 6,7-Bis-(2-methoxy-ethoxy)-2-oxo-1,2-dihydro-quinoline-3-carboxylic acid [2-methyl-5-(1H-tetrazol-5-yl)-phenyl]-amide], for which the inhibition at 10 µM in test [1] worked out at 49%. Moreover, the IC50 in test [2] worked out at 5.05 µM.

Regarding `COc1cc2cc(C(=O)Nc3cc(C(=O)NCCCN4CCOCC4)ccc3C)c(=O)[nH]c2cc1OC` [Example 32, 6,7-Dimethoxy-2-oxo-1,2-dihydro-quinoline-3-carboxylic acid [2-methyl-5-(3-morpholin-4-yl-propylcarbamoyl)-phenyl]-amide], the IC50 was 3.62 µM in test [1] and > 10 µM in test [2].

For the origin of these results see patent US20120184548A1, “CARBOXYLIC ACID ARYL AMIDES” (priority 2011, published 2012).
